Among the data in PubChem BioAssay (NCI) are TGI and GI50 values, retold here.

Some test systems named below: HS 578T breast; A498 renal; HOP-92 NSCLC; SR leukemia; SK-MEL-28 melanoma; OVCAR-5 ovarian; EKVX NSCLC; HT29 colon; NCI-H23 lung; HOP-62 NSCLC.
Common to all, as to assay: NCI-60 cell line screen, 48 h

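Each compound was tested at five concentrations against cells in 96-well plates for 48 hours. Here, GI50 denotes the concentration required for 50% inhibition of growth. TGI: total growth inhibition.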

Consider `O[C@@]12Cc3c([nH]c4ccccc34)[C@@H]3Oc4c(-c5ccccc5)ccc5c4[C@@]31CCN(CC1CC1)[C@@H]2C5`, for which the TGI is 4.62 µM with HS 578T breast; 2.79 µM with A498 renal; 21.4 µM in the assay on HOP-92 NSCLC; more than 100 µM with SR leukemia; 3.24 µM in the assay on SK-MEL-28 melanoma; 15.1 µM in the assay with OVCAR-5 ovarian. Further, the TGI came to 4 µM in the assay with EKVX NSCLC, 3.29 µM in the assay on HT29 colon, 3.55 µM in the assay on NCI-H23 lung and 3.06 µM in the assay on HOP-62 NSCLC.

As for `COC(=O)C1Cc2cc3c(cc2C1)CCC3`, the TGI with HS 578T breast, in the assay on A498 renal, in the assay with HOP-92 NSCLC, with SR leukemia, in the assay with SK-MEL-28 melanoma and in the assay on OVCAR-5 ovarian was more than 100 µM each time. Moreover, the TGI in the assay with EKVX NSCLC, in the assay with HT29 colon, in the assay on NCI-H23 lung and in the assay with HOP-62 NSCLC was more than 100 µM throughout.

In the case of `O=C(/C=C/c1cccc(Br)c1)N1CCN(CCOC(c2ccccc2)c2ccccc2)CC1`, the TGI in the assay with HS 578T breast was more than 100 µM; with A498 renal, more than 100 µM; with HOP-92 NSCLC, 99.1 µM; in the assay on SR leukemia it was 38.4 µM; in the assay with SK-MEL-28 melanoma, more than 100 µM; in the assay with OVCAR-5 ovarian it was more than 100 µM. The TGI is more than 100 µM in the assay with EKVX NSCLC, 81.5 µM with HT29 colon, more than 100 µM with NCI-H23 lung and more than 100 µM in the assay with HOP-62 NSCLC.

Consider `C[C@@H]1CC[C@@]2(C)[C@H](C)/C(=C\COC(=O)/C=C/c3ccc(O)c(O)c3)CC[C@@]12C`, for which the TGI came to 32.8 µM in the assay with HS 578T breast; 25.8 µM in the assay with A498 renal; 29.7 µM in the assay on HOP-92 NSCLC; 6.93 µM with SR leukemia; 24.5 µM with SK-MEL-28 melanoma; 35 µM with OVCAR-5 ovarian. Further, the TGI was determined as 30.8 µM with EKVX NSCLC, 25.1 µM in the assay on HT29 colon, 23.1 µM in the assay on NCI-H23 lung and 28.8 µM in the assay with HOP-62 NSCLC.

Consider `COCCCNc1c2ccccc2nc2ccccc12`, for which the TGI in the assay on HS 578T breast turned out to be 9.32 µM; with A498 renal, 15.2 µM; in the assay on HOP-92 NSCLC, 12.5 µM; in the assay on SR leukemia, 12.1 µM; in the assay on SK-MEL-28 melanoma, 6.54 µM; in the assay on OVCAR-5 ovarian, 6.93 µM. In addition, the TGI in the assay with EKVX NSCLC is 27.3 µM; with HT29 colon, 51.8 µM; in the assay with NCI-H23 lung, 10.3 µM; with HOP-62 NSCLC, 12.2 µM.

`c1ccc(/C(=N/Nc2ccccn2)c2cccnn2)cc1`: the TGI with HS 578T breast was more than 79 µM; in the assay with A498 renal, more than 100 µM; in the assay with HOP-92 NSCLC it was more than 39.5 µM; in the assay with SR leukemia, more than 20.8 µM; in the assay with SK-MEL-28 melanoma it was more than 100 µM; with OVCAR-5 ovarian, more than 100 µM. Further, the TGI was 16.7 µM with EKVX NSCLC, more than 58.8 µM in the assay with HT29 colon, more than 50.3 µM with NCI-H23 lung and more than 63.8 µM in the assay on HOP-62 NSCLC.

As to `CC/C=C\C=C/C(=O)N/C=C/CCC`, the TGI in the assay with HS 578T breast, in the assay on A498 renal, in the assay with HOP-92 NSCLC, with SR leukemia, in the assay with SK-MEL-28 melanoma and in the assay with OVCAR-5 ovarian was more than 100 µM in each case. The TGI with EKVX NSCLC, in the assay with HT29 colon, in the assay with NCI-H23 lung and in the assay on HOP-62 NSCLC was more than 100 µM each time.

As for `CN(Cc1cnc2nc(N)nc(N)c2n1)c1ccc(C(=O)NCCCC(=O)O)cc1`, the TGI in the assay with HS 578T breast, in the assay on A498 renal, in the assay on HOP-92 NSCLC, in the assay on SR leukemia, in the assay on SK-MEL-28 melanoma and in the assay with OVCAR-5 ovarian was more than 100 µM each time. Also, the TGI in the assay with EKVX NSCLC, in the assay on HT29 colon, in the assay with NCI-H23 lung and with HOP-62 NSCLC was more than 100 µM in each case.

Regarding `C#CCNC(=O)CC[C@@H](C)[C@H]1CC[C@H]2[C@@H]3CC[C@@H]4CC(=O)CC[C@]4(C)[C@H]3CC[C@]12C`, the GI50 with HS 578T breast was 21.3 µM; in the assay on A498 renal, 25 µM; in the assay on HOP-92 NSCLC, 2.54 µM; in the assay with SR leukemia, 3.17 µM; in the assay on SK-MEL-28 melanoma it was 16.8 µM; in the assay on OVCAR-5 ovarian, 22.1 µM. Further, the GI50 in the assay with EKVX NSCLC was 20.1 µM; in the assay with HT29 colon, 12.7 µM; with NCI-H23 lung, 19.6 µM; in the assay with HOP-62 NSCLC it was 16.6 µM. The TGI is 77.3 µM in the assay on HS 578T breast; more than 100 µM in the assay with A498 renal; 10.3 µM in the assay on HOP-92 NSCLC; 33.3 µM in the assay on SR leukemia; 36 µM in the assay with SK-MEL-28 melanoma; 47.1 µM in the assay with OVCAR-5 ovarian. Also, the TGI with EKVX NSCLC was found to be 57.9 µM; in the assay with HT29 colon it was 34.5 µM; in the assay on NCI-H23 lung, 75.7 µM; with HOP-62 NSCLC it was 40.4 µM.

As for `C/C(=N\O)c1cccc(Nc2c3ccccc3nc3occc23)c1`, the TGI was 55.3 µM in the assay with HS 578T breast; more than 100 µM with A498 renal; 47.9 µM with HOP-92 NSCLC; more than 100 µM in the assay with SR leukemia; 25.6 µM in the assay with SK-MEL-28 melanoma; more than 100 µM in the assay on OVCAR-5 ovarian. Besides, the TGI in the assay with EKVX NSCLC worked out at 50.6 µM; with HT29 colon, 95.7 µM; in the assay with NCI-H23 lung, 49.4 µM; with HOP-62 NSCLC, 17.5 µM.

Regarding `CN(C)NC1=NS(=O)(=O)c2cc3c(=O)n(C)[nH]c3cc2S1`, the TGI in the assay on HS 578T breast, in the assay on A498 renal, with HOP-92 NSCLC, in the assay on SR leukemia, with SK-MEL-28 melanoma and in the assay on OVCAR-5 ovarian was more than 10 µM throughout. Also, the TGI in the assay on EKVX NSCLC, in the assay on HT29 colon, in the assay with NCI-H23 lung and with HOP-62 NSCLC was more than 10 µM in each case.

Regarding `NS(=O)(=O)c1ccc(NC(=O)c2ccc3nc4ccccc4c(Nc4ccc(S(N)(=O)=O)cc4)c3c2)cc1`, the TGI with HS 578T breast, with A498 renal, in the assay with HOP-92 NSCLC, with SR leukemia, in the assay on SK-MEL-28 melanoma and with OVCAR-5 ovarian was more than 100 µM each time. Moreover, the TGI in the assay on EKVX NSCLC, in the assay with HT29 colon, in the assay with NCI-H23 lung and with HOP-62 NSCLC was more than 100 µM throughout.

For the compound `COc1ccc(C=O)cc1OS(=O)(=O)C(F)(F)C(F)(F)C(F)(F)C(F)(F)F`, the TGI in the assay with HS 578T breast was 68.8 µM; in the assay with A498 renal it was more than 68.2 µM; with HOP-92 NSCLC, 58.6 µM; with SR leukemia, more than 24.4 µM; with SK-MEL-28 melanoma it was 97.5 µM; with OVCAR-5 ovarian it was more than 100 µM. Further, the TGI was more than 82.6 µM in the assay on EKVX NSCLC, more than 90.5 µM with HT29 colon, more than 100 µM with NCI-H23 lung and more than 79.8 µM in the assay on HOP-62 NSCLC.

For `Nc1ncnc2c1ccn2-c1cccc(NC(=O)c2ccc(N3CCOCC3)c(C(F)(F)F)c2)c1`, the GI50 is 1.83 µM with HS 578T breast; 3.06 µM in the assay with A498 renal; 1.6 µM with HOP-92 NSCLC; 3.38 µM in the assay on SR leukemia; 4.76 µM in the assay on SK-MEL-28 melanoma; 3 µM in the assay with OVCAR-5 ovarian. Moreover, the GI50 was 3.2 µM in the assay with EKVX NSCLC, 3 µM with HT29 colon, 2.95 µM in the assay on NCI-H23 lung and 3.62 µM in the assay on HOP-62 NSCLC. Also, the TGI in the assay with HS 578T breast was 6.03 µM; in the assay on A498 renal, 12.8 µM; in the assay with HOP-92 NSCLC it was 5.82 µM; in the assay on SR leukemia it was 20.7 µM; in the assay on SK-MEL-28 melanoma it was 23 µM; with OVCAR-5 ovarian, 21.1 µM. The TGI worked out at 22.1 µM with EKVX NSCLC, 12.3 µM with HT29 colon, 13.6 µM with NCI-H23 lung and 15.5 µM in the assay on HOP-62 NSCLC.

For `COc1cc(N(CCCl)CCCl)ccc1/C=N\NC(=O)c1cccnc1`, the GI50 in the assay on HS 578T breast was 32.6 µM; with A498 renal, 0.523 µM; in the assay with HOP-92 NSCLC, 14.1 µM; in the assay on SR leukemia, 13.7 µM; with SK-MEL-28 melanoma, 48.4 µM; in the assay with OVCAR-5 ovarian, 8.34 µM. Also, the GI50 is 31.2 µM in the assay with EKVX NSCLC, 34.8 µM in the assay with HT29 colon, 26.7 µM with NCI-H23 lung and 34.9 µM in the assay with HOP-62 NSCLC. Further, the TGI in the assay with HS 578T breast was more than 100 µM; with A498 renal, 1.98 µM; in the assay with HOP-92 NSCLC it was 45.4 µM; in the assay on SR leukemia, more than 100 µM; in the assay on SK-MEL-28 melanoma, more than 100 µM; with OVCAR-5 ovarian, 60.1 µM. Also, the TGI was 87.5 µM in the assay with EKVX NSCLC, more than 100 µM in the assay with HT29 colon, more than 100 µM in the assay on NCI-H23 lung and more than 100 µM in the assay on HOP-62 NSCLC.

As for `CN1CCN(c2n[nH]c(=O)c3c2nnn3C2CCCCC2)CC1`, the TGI in the assay with HS 578T breast, in the assay with A498 renal, with HOP-92 NSCLC, with SR leukemia, with SK-MEL-28 melanoma and in the assay on OVCAR-5 ovarian was more than 100 µM each time. Further, the TGI in the assay with EKVX NSCLC, with HT29 colon, in the assay on NCI-H23 lung and in the assay on HOP-62 NSCLC was more than 100 µM each time.

With `Nc1ccc(C2SCC(=O)N2NS(=O)(=O)c2cccc(C(=O)O)c2)cc1` (stereo not given), the TGI in the assay with HS 578T breast, in the assay with A498 renal, with HOP-92 NSCLC, with SR leukemia, in the assay on SK-MEL-28 melanoma and in the assay with OVCAR-5 ovarian was more than 100 µM each time. The TGI in the assay on EKVX NSCLC, in the assay on HT29 colon, in the assay on NCI-H23 lung and in the assay on HOP-62 NSCLC was more than 100 µM in each case.
